The values that follow come from PubChem BioAssay (NCI).

Test systems include UACC-62 melanoma; EKVX NSCLC; NCI-H226 lung; MOLT-4 leukemia; NCI-H23 lung; M14 melanoma; SNB-19 CNS; COLO 205 colon; DU-145 prostate.
What all share (test): growth of human tumour cells (NCI), 48 h

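Compound exposure: 48 hours, 5 concentrations, 96-well plates. GI50 = concentration required for 50% inhibition of growth. TGI: concentration producing complete growth inhibition.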

Turning to `Cc1ccc(-c2nc3c(C(=O)NCCN(C)C)cccc3[nH]2)cc1`, the TGI is 32.5 µM in the assay on UACC-62 melanoma; 69.5 µM in the assay with EKVX NSCLC; 31.7 µM in the assay on NCI-H226 lung; 18.5 µM in the assay on MOLT-4 leukemia; 30.3 µM in the assay on NCI-H23 lung; 29.2 µM in the assay on M14 melanoma. The results for the TGI with SNB-19 CNS and in the assay on COLO 205 colon were over 100 µM and 20.4 µM, respectively.
In the case of `COc1ccc(NC(=O)COC(=O)c2cccc3c(=O)c4ccccc4[nH]c23)cc1`, the TGI stood at 33.1 µM with UACC-62 melanoma; 96.2 µM in the assay with EKVX NSCLC; 44.6 µM in the assay on NCI-H226 lung; 33.7 µM in the assay with MOLT-4 leukemia; 32 µM with NCI-H23 lung; 90.7 µM with M14 melanoma. Moreover, the TGI in the assay on SNB-19 CNS was over 100 µM; in the assay on COLO 205 colon, 33.3 µM.
`O=C1Cc2ccccc2N1c1c(Cl)cccc1Cl`: the TGI with UACC-62 melanoma was over 100 µM; in the assay on EKVX NSCLC, over 100 µM; in the assay with NCI-H226 lung it was over 100 µM; in the assay on MOLT-4 leukemia, 98.1 µM; in the assay with NCI-H23 lung it was over 100 µM; with M14 melanoma, over 100 µM. Moreover, the TGI in the assay with SNB-19 CNS and with COLO 205 colon was over 100 µM in each case.
As for `CCCCCCCCCCCCCC(=O)OC(/C=C/C(C)C)C(O)C(O)C(OC)C(=O)NC1CCCCNC1=O` (stereo unspecified), the GI50 was 4.28 µM in the assay with UACC-62 melanoma, 5.57 µM in the assay on MOLT-4 leukemia, 8.82 µM in the assay on NCI-H23 lung and 2.61 µM with M14 melanoma. In addition, the TGI stood at 3.74 µM with UACC-62 melanoma; 11.5 µM in the assay with EKVX NSCLC; 8.95 µM with NCI-H226 lung; 10.5 µM in the assay on MOLT-4 leukemia; 5 µM in the assay with NCI-H23 lung; 4.35 µM with M14 melanoma. Moreover, the TGI with SNB-19 CNS came to 9.08 µM; in the assay with COLO 205 colon it was 3.69 µM.
For `S=P1(c2ccccc2)Nc2ccc(Cl)cc2N1` (stereo unspecified), the TGI in the assay with UACC-62 melanoma was 26.4 µM; with EKVX NSCLC, over 100 µM; with NCI-H226 lung it was over 100 µM; with MOLT-4 leukemia, over 100 µM; with NCI-H23 lung it was over 100 µM; in the assay with M14 melanoma it was 56.9 µM. Besides, the figures for the TGI in the assay with SNB-19 CNS and in the assay with COLO 205 colon were over 100 µM and 45.5 µM, respectively.
As to `COC(=O)c1oc2c(O)c(OC)c(Br)cc2c1C`, the GI50 was 14.7 µM with UACC-62 melanoma; 23.8 µM in the assay with EKVX NSCLC; 29 µM in the assay on NCI-H226 lung; 22.4 µM in the assay with MOLT-4 leukemia; 22.6 µM in the assay on M14 melanoma; 22.9 µM in the assay with SNB-19 CNS. For the same compound, in the assay on COLO 205 colon, the GI50 is 22.5 µM. In addition, the TGI in the assay on UACC-62 melanoma stood at 30.7 µM; with EKVX NSCLC, 49.1 µM; in the assay with NCI-H226 lung it was 50.2 µM; in the assay with MOLT-4 leukemia, 43 µM; in the assay on M14 melanoma, 42.6 µM; in the assay on SNB-19 CNS, 46.1 µM. This compound also showed a TGI with COLO 205 colon of 48.3 µM.
On to `CCN(CC)CCC(=O)N1CCc2c([nH]c3ccccc23)C1c1cccnc1` (stereo unspecified), for which the TGI in the assay with UACC-62 melanoma, in the assay with EKVX NSCLC, in the assay on MOLT-4 leukemia, with NCI-H23 lung, with M14 melanoma and in the assay on SNB-19 CNS was over 100 µM each time.
Take `CC(=O)OC1(C#N)CC2OC1C1C2N1C(=O)OC(C)(C)C` (stereo unspecified): the TGI with UACC-62 melanoma, in the assay on EKVX NSCLC, in the assay with NCI-H226 lung, in the assay with MOLT-4 leukemia, with NCI-H23 lung and in the assay with M14 melanoma was over 100 µM in each case. Also, the TGI in the assay on SNB-19 CNS and in the assay on COLO 205 colon was over 100 µM each time.
Regarding `COc1ccc(CC2NCCc3cc(OC)c(OC)cc32)cc1` (stereo unspecified), the TGI with UACC-62 melanoma, with EKVX NSCLC, in the assay on NCI-H226 lung, with MOLT-4 leukemia, in the assay with NCI-H23 lung and in the assay on M14 melanoma was over 100 µM in each case. Also, the TGI in the assay with SNB-19 CNS and with COLO 205 colon was over 100 µM in each case.
Consider `CC1CC(=O)C(CC(=O)O)C1C(C(=O)C(=O)Nc1c(C#N)cccc1[N+](=O)[O-])[N+](=O)[O-]` (stereo unspecified), for which the TGI in the assay with UACC-62 melanoma, in the assay with EKVX NSCLC, in the assay on NCI-H226 lung, in the assay on MOLT-4 leukemia, in the assay with NCI-H23 lung and with M14 melanoma was over 100 µM in each case. For the same compound, the TGI in the assay on SNB-19 CNS and in the assay on COLO 205 colon was over 100 µM in each case.
`Oc1ccc2c3c1OC1C(=NN=C4CCC5(O)C6Cc7ccc(O)c8c7C5(CCN6CC5CC5)C4O8)CCC4(O)C(C2)N(CC2CC2)CCC314` (stereo unspecified): the TGI in the assay with UACC-62 melanoma was 41.2 µM; in the assay on EKVX NSCLC, over 85.2 µM; in the assay with NCI-H226 lung it was over 100 µM; in the assay on MOLT-4 leukemia, over 74 µM; in the assay with NCI-H23 lung, 99 µM; in the assay with M14 melanoma, 33.4 µM. Moreover, the values for the TGI in the assay on SNB-19 CNS and in the assay on COLO 205 colon were over 100 µM and 38.4 µM, respectively.
In the case of `O=C1CCCC(=O)C1=C(O)CCCCCCCCCCc1ccccc1`, the TGI in the assay on UACC-62 melanoma is over 100 µM; in the assay on EKVX NSCLC, over 100 µM; in the assay on NCI-H226 lung, 96.9 µM; in the assay on MOLT-4 leukemia, over 100 µM; with NCI-H23 lung, over 100 µM; in the assay on M14 melanoma, over 100 µM. In addition, the TGI with SNB-19 CNS was over 100 µM; in the assay with COLO 205 colon it was 31.8 µM.
On to `C=CCC12CC(=O)C=C1CCC1(C2)OCCO1` (stereo unspecified), for which the TGI in the assay on UACC-62 melanoma, in the assay on NCI-H226 lung, in the assay on MOLT-4 leukemia, in the assay with M14 melanoma, in the assay with SNB-19 CNS and in the assay with COLO 205 colon was over 100 µM throughout.
For `COc1ccc(/C(=N\O)c2cc(OC)c(OC)c(OC)c2)c(OC)c1N`, the GI50 in the assay on EKVX NSCLC is 5.96 µM; in the assay on NCI-H226 lung, 46.6 µM; in the assay on MOLT-4 leukemia, 3.95 µM; in the assay on NCI-H23 lung, 6.45 µM; in the assay with M14 melanoma, 2.98 µM; in the assay on SNB-19 CNS, 5.61 µM. Besides, the GI50 in the assay with COLO 205 colon was 2.23 µM; in the assay with DU-145 prostate it was 4.02 µM. Further, the TGI with EKVX NSCLC, in the assay with NCI-H226 lung, with MOLT-4 leukemia, in the assay on NCI-H23 lung, with M14 melanoma and in the assay with SNB-19 CNS was over 100 µM each time. The figures for the TGI in the assay on COLO 205 colon and with DU-145 prostate were 6.5 µM and over 100 µM, respectively.
